Experimental data: US20250051363A1, “Substituted Pyrazolopyridines” (Neuro3 Therapeutics, Inc., priority 2023, published 2025)

Each compound was assayed against LRRK2 wild-type (Homo sapiens (Human), UniProt Q5S007) (assay: LanthaScreen LRRK2 Biochemical Activity Assay). Settings: human recombinant LRRK2 (amino acids 970-2527) wild-type, ATP 57 μM, TR-FRET; read-out: IC50 (nM), inhibition of LRRK2 wild-type kinase activity.
Method: The ability of a compound of Formula (I) to inhibit LRRK2 kinase activity is measured using a LanthaScreen™ kinase activity assay. In general, in a LanthaScreen™ kinase activity assay, kinase, fluorescein-labeled substrate, and ATP are allowed to react. Then EDTA (to stop the reaction) and terbium-labeled antibody (to detect phosphorylated product) are added. In a LanthaScreen™ kinase reaction, the antibody associates with the phosphorylated fluorescein labeled substrate resulting in an increased TR-FRET value. The TR-FRET value is a dimensionless number that is calculated as the ratio of the acceptor (fluorescein) signal to the donor (terbium) signal. The amount of antibody that is bound to the tracer is directly proportional to the amount of phosphorylated substrate present, and in this manner, kinase activity can be detected and measured by an increase in the TR-FRET value. Accordingly, in this Example, enzyme reactions are carried out in a kinase reaction buffer in the presence or absence of representative compounds of Formula (I) at various concentrations in 384-well plate at room temperature for 60 minutes. The kinase reaction buffer contains human recombinant LRRK2 protein (amino acids 970-2527, 5 nM), ATP (57 μM for LRRK2 wild-type, 134 μM for G2019S mutant protein), Fluorescein-LRRKtide substrate (0.4 mM), 50 mM Tris pH 7.5, 10 mM MgCl2, 1 mM EGTA, 0.01% Brij™-35, and 2 mM DTT. The final reaction volume for each reaction is 10 μL. The reactions are initated by adding the substrate and stopped by the addition of 10 μL of a TR-FRET dilution buffer supplemented with a kinase quench buffer (10 mM EDTA final) and Tb-anti-pLRRKtide (2 nM final). The plate is further incubated at room temperature for another 60 minutes, and the fluorescent signals are read on an EnVision® multilabel plate reader (PerkinElmer, Waltham, MA) with excitation at 340 nm and emission at 495 and 520 nm. The assay signal is determined as a ratio of FRET-specific signal measured with emission filter at 520 nm to that of the signal measured with Tb-specific emission filter at 495 nm. IC50 values for compound-mediated enzyme inhibition are calculated using appropriate programs in GraphPad Prism software by plotting the logarithm of the compound concentrations versus percent inhibition. All reagents are purchased from Thermo Fisher Scientific.

LRRK2 wild-type, sequence (Q5S007 970-2527): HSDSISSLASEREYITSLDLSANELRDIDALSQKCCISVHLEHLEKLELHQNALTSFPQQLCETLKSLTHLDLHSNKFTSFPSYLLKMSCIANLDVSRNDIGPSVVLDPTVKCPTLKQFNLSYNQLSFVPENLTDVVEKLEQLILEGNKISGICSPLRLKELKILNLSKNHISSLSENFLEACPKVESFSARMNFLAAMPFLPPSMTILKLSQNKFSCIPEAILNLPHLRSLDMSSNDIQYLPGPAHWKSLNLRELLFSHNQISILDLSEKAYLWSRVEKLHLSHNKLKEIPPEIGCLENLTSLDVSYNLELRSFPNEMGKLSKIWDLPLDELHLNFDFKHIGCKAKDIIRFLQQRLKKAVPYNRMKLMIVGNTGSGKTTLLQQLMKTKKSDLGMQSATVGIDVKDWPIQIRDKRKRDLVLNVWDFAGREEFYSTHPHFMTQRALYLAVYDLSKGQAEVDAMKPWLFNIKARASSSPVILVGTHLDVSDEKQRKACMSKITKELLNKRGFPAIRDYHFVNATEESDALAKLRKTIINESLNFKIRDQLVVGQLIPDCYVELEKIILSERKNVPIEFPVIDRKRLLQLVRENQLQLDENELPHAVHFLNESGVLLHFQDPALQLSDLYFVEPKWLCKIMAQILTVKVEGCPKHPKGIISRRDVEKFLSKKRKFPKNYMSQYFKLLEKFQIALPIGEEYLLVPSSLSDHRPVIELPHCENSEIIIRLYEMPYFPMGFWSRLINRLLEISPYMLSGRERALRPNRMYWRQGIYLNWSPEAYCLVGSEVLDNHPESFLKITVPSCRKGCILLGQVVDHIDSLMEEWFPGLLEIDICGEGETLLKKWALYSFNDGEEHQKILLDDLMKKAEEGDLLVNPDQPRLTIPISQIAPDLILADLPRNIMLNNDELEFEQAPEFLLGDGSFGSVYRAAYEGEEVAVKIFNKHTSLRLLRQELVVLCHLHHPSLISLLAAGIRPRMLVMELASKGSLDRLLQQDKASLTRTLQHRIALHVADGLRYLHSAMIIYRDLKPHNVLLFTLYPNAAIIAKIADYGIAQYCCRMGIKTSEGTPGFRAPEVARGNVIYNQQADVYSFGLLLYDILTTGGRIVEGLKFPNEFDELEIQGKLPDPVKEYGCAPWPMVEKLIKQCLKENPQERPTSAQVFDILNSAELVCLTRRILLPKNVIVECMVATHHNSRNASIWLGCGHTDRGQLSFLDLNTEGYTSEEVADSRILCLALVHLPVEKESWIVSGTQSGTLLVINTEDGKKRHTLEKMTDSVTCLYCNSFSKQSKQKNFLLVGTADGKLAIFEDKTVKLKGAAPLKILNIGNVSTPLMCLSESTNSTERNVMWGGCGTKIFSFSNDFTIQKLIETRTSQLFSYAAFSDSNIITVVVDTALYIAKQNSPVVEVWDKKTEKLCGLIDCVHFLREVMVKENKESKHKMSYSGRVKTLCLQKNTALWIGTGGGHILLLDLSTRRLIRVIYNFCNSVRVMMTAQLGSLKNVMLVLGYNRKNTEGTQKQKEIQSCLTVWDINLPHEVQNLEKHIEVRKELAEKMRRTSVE

SMILES | IC50
CS(=O)(=O)NCCC(=O)Nc1ccn2ncc(-c3cccc(C4CCCNC4)n3)c2c1 (stereo not drawn) [Example 22, 3-(methylsulfonamido)-N-(3-(6-(piperidin-3-yl)pyridin-2-yl)pyrazolo[1,5-a]pyridin-5-yl)propanamide] | 11 to 100 nM
c1cc(-c2cnn3ccccc23)nc(N2CC3CCC2CN3)c1 (stereo not drawn) [Example 48, 3-[6-(2,5-diazabicyclo[2.2.2]octan-2-yl)-2-pyridyl]pyrazolo[1,5-a]pyridine] | 101 to 400 nM
c1cc(-c2cnn3ccccc23)nc(C2CCNC2)c1 (stereo not drawn) [Example 3, 3-(6-pyrrolidin-3-yl-2-pyridyl)pyrazolo[1,5-a]pyridine] | 101 to 400 nM
N#CCCC(=O)Nc1ccn2ncc(-c3cccc(C4CCCNC4)n3)c2c1 (stereo not drawn) [Example 74, 3-cyano-N-(3-(6-(piperidin-3-yl)pyridin-2-yl)pyrazolo[1,5-a]pyridin-5-yl)propanamide] | 11 to 100 nM
Clc1ccn2ncc(-c3cccc(N4CC5CC(C4)N5)n3)c2c1 [Example 46, 3-(6-(5-chloropyrazolo[1,5-a]pyridin-3-yl)pyridin-2-yl)-3,6-diazabicyclo[3.1.1]heptane] | 11 to 100 nM
C[C@@H]1CN(c2cccc(-c3cnn4ccc(Cl)cc34)n2)C[C@H](C)N1C [Example 71, 5-chloro-3-(6-((3S,5R)-3,4,5-trimethylpiperazin-1-yl)pyridin-2-yl)pyrazolo[1,5-a]pyridine] | 11 to 100 nM
C[C@@H]1CN(c2nc(-c3cnn4ccc(Cl)cc34)ccc2Cl)C[C@H](C)N1 [Example 60, 5-chloro-3-[5-chloro-6-[(3S,5R)-3,5-dimethylpiperazin-1-yl]-2-pyridyl]pyrazolo[1,5-a]pyridine] | 101 to 400 nM
COc1cc(-c2cnn3ccccc23)nc(C2CCCNC2)c1 (stereo not drawn) [Example 27, 3-(4-methoxy-6-(piperidin-3-yl)pyridin-2-yl)pyrazolo[1,5-a]pyridine] | 101 to 400 nM
c1cc(-c2cnn3ccc(OCC4COC4)cc23)nc(C2CCCNC2)c1 (stereo not drawn) [Example 15, 5-(oxetan-3-ylmethoxy)-3-[6-(3-piperidyl)-2-pyridyl]pyrazolo[1,5-a]pyridine] | 101 to 400 nM
FC(F)(F)c1ccn2ncc(-c3cccc(C4CCCNC4)n3)c2c1 (stereo not drawn) [Example 10, 3-[6-(3-piperidyl)-2-pyridyl]-5-(trifluoromethyl)pyrazolo[1,5-a]pyridine] | 11 to 100 nM
C[C@@H]1CN(c2cc(F)cc(-c3cnn4ccc(Cl)cc34)n2)C[C@H](C)N1 [Example 58, 5-chloro-3-[6-[(3R,5S)-3,5-dimethylpiperazin-1-yl]-4-fluoro-2-pyridyl]pyrazolo[1,5-a]pyridine] | ≤ 10 nM
CS(=O)(=O)NCCNC(=O)c1ccc2c(-c3cccc(C4CCCNC4)n3)cnn2c1 (stereo not drawn) [Example 24, N-[2-(methanesulfonamido)ethyl]-3-[6-(3-piperidyl)-2-pyridyl]pyrazolo[1,5-a]pyridine-6-carboxamide] | 101 to 400 nM
